Data taken from publication PMC5369052, “Calcium regulation of the human mitochondrial ATP-Mg/Pi carrier SLC25A24 uses a locking pin mechanism” (Scientific Reports, 2017).

How the values were obtained:
[1] = target: T1, ∆1-191 APC1 (∆1-191_APC1) (Homo sapiens, UniProt Q6NUK1); test: counter-exchange of internal ADP with external […]-ATP in proteoliposomes; type: biochemical; details: 2.5 mM internal ADP; 5 mM MgCl2 outside; pH 7.4, 20 °C
T1 construct: gene SLC25A24; carrier domain only, N-terminal truncation; His8-Factor Xa tag cut, primer adds TSED after IEGR; in liposomes
T1 sequence (Q6NUK1 191-477): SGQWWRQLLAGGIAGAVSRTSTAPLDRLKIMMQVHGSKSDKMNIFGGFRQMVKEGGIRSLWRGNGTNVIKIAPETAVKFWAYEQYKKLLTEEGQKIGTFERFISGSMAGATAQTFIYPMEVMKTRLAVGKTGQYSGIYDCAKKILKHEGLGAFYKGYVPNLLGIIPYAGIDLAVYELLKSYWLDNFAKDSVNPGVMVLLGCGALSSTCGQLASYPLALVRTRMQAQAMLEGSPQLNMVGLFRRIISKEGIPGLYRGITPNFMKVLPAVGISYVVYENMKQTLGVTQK

[2] = target: T1, ∆1-191 APC1 (∆1-191_APC1); test: […]-ATP uptake into proteoliposomes, initial rates; type: biochemical; details: 1.5 μM external ATP exchanged for 2.5 mM internal ADP; 5 mM MgCl2 outside; pH 7.4, 20 °C; labelled compound
[3] = substrate: Nc1ncnc2c1ncn2[C@@H]1O[C@H](COP(=O)(O)OP(=O)(O)OP(=O)(O)O)[C@@H](O)[C@H]1O; test: purified protein; type: biochemical, Homo sapiens; details: 4 mM total external CaCl2 (calcium-activated state), 2.5 mM internal ATP, 20 mM Tris-HCl pH 7.4, 20 °C, labelled compound

Molecule: Nc1ncnc2c1ncn2[C@@H]1O[C@H](COP(=O)(O)OP(=O)(O)O)[C@@H](O)[C@H]1O [ADP]
- counter-exchange of internal ADP with external [14C]-ATP in proteoliposomes [1]: hetero-exchange between ATP and ADP was monitored over a 15-minute time course

Molecule: Nc1ncnc2c1ncn2[C@@H]1O[C@H](COP(=O)(O)OP(=O)(O)OP(=O)(O)O)[C@@H](O)[C@H]1O [ATP]
- [14C]-ATP uptake into proteoliposomes, initial rates [2]: uptake rate of ATP was highest in the presence of externally added magnesium

B1: full-length human mitochondrial ATP-Mg/Pi carrier isoform 1 (APC1; SCaMC1/SLC25A24) (Homo sapiens) (protein)
chain: MLRWLRDFVLPTAACQDAEQPTRYETLFQALDRNGDGVVDIGELQEGLRNLGIPLGQDAEEKIFTTGDVNKDGKLDFEEFMKYLKDHEKKMKLAFKSLDKNNDGKIEASEIVQSLQTLGLTISEQQAELILQSIDVDGTMTVDWNEWRDYFLFNPVTDIEEIIRFWKHSTGIDIGDSLTIPDEFTEDEKKSGQWWRQLLAGGIAGAVSRTSTAPLDRLKIMMQVHGSKSDKMNIFGGFRQMVKEGGIRSLWRGNGTNVIKIAPETAVKFWAYEQYKKLLTEEGQKIGTFERFISGSMAGATAQTFIYPMEVMKTRLAVGKTGQYSGIYDCAKKILKHEGLGAFYKGYVPNLLGIIPYAGIDLAVYELLKSYWLDNFAKDSVNPGVMVLLGCGALSSTCGQLASYPLALVRTRMQAQAMLEGSPQLNMVGLFRRIISKEGIPGLYRGITPNFMKVLPAVGISYVVYENMKQTLGVTQK
notes: full length, N-terminal His8 tag + Factor Xa site (IEGR), tag cut by factor Xa; codon-optimised, expressed in S. cerevisiae mitochondria; purified in LMNG, reconstituted in PC/cardiolipin liposomes
- Km [3]: 29 ± 8 µM
